Source: patent US20190117657A1, “METHOD OF INHIBITING HIGH FAT DIET-RELATED CONDITIONS” (South Australian Health and Medical Research Institute …, priority 2016, published 2019)

Experiments:
[1] = test system: MNKs; assay: eIF4E phosphorylation (P-eIF4E immunoblot) in 3T3-L1 cells as read-out of MNK activity; type: cell-based
Description: Similar data obtained in three replicate experiments.
The term “MNK inhibitor” as used herein is intended to refer to any compound that reduces the biological activity of MNK1 (including reducing the biological activity of one or both of splice variants MNK1 a and MNK1b) and/or MNK2 (including reducing the biological activity of one or both of splice variants MNK2a and MNK2b), including by reducing the amount of MNK1 and/or MNK2 expressed. For example, the MNK inhibitor may be a small organic molecule (also referred to as a “small molecule” herein), a peptide antagonist, an inhibitory antibody or fragment thereof, an interfering nucleotide molecule, an aptamer or other MNK inhibitor that inhibits the expression or biological activity as would be understood by those skilled in the art. The biological activity of MNK1 and MNK2 can be measured in a variety of ways, for example, by measuring phosphorylation of its substrate eIF4E to P-eIF4E using any suitable method known to those skilled in the art, for example, by performing an immunoblot or ELISA utilising a specific anti-P-eIF4E antibody, for example, the anti-phospho eIF4E (Ser209) antibody distributed by Merck Millipore, Catalogue No. 07-823 (Merck Millipore, Billerica, Mass., United States of America). […] Those skilled in the art will be aware of how to conduct suitable controls when measuring P-eIF4E levels. The MNK1 and/or MNK2 bioactivity can otherwise be measured using a cellular assay that can detect levels of MNK1 and/or MNK2 bioactivity. Antibodies that specifically detect phosphorylated MNK could also be used, for example, anti-P-MNK1 (Phospho-Mnk1 (Thr197/202) Antibody #2111; Cell Signaling Technology Inc, Danvers, Mass., United States of America). Additionally, those skilled in the art will appreciate that the MNK inhibitors should be safe for use for its intended purpose.
Tissues were harvested in RIPA lysis buffer containing 50 mM TrisHCl, pH 7.4, 150 mM NaCl, 1% Triton X-100, 0.1% sodium deoxycholate, 0.1% sodium dodecyl sulfate, 1 mM ethylenediaminetetraaacteic acid (EDTA), 50 mM β-glycerolphosphate, 0.5 mM NaVO3, 0.1% 2-mercaptoethanol and protease inhibitors (Roche). After lysis, insoluble material was removed by centrifugation at 12,000 g for 10 min at 4° C. Protein content was determined by the Bradford protein assay (Bio-Rad). Immunoblotting was performed as described in Liu et al. (2014). Blots were visualised using a LI-COR Odyssey® Quantitative Imaging System. Primary antibodies as indicated in Table 5 were from Cell Signaling Technologies, except for anti-P-eIF4E (Merck Millipore). Secondary antibodies were obtained from Thermo Fisher Scientific Inc. (Waltham, Mass., United States of America) and used at 1:20,000 dilution.
MNKs are the only kinases known to phosphorylate eIF4E, and accordingly, the phosphorylation of eIF4E (P-eIF4E) provides a direct read-out of MNK biological activity.
(§1) Since eIF4E is only phosphorylated by the MNKs, its phosphorylation status is a reliable read-out of intracellular MNK activity. […] MNK2 is the main MNK in 3T3-L1 cells and in adipose tissue (Moore et al., 2016). In additional studies, tests were conducted to assess the effect of the MNK-I2 inhibitor on the induction of differentiation markers in 3T3-L1 cells.

[2] = target: MNK1 (Homo sapiens, UniProt Q9BUB5); conditions: cited from earlier work
MNK1 (Homo sapiens, UniProt Q9BUB5), sequence (Q9BUB5 whole entry, species assumed): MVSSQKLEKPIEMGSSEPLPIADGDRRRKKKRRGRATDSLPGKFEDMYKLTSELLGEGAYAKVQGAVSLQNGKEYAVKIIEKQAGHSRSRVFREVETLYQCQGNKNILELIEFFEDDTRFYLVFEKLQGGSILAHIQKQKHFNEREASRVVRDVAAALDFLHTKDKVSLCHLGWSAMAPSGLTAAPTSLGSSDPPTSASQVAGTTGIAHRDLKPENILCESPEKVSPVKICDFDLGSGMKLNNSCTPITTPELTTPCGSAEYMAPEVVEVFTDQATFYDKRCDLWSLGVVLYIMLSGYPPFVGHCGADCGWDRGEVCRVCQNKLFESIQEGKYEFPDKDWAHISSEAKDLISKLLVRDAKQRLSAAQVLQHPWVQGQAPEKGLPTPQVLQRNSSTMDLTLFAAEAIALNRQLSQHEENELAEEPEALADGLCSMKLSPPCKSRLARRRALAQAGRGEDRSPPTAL

[3] = target: T1, MNK2 (Mus musculus, UniProt Q8CDB0); assay: P-eIF4E in MNK1-KO mouse embryonic fibroblasts (reports on MNK2); type: cell-based
T1 construct: endogenous in cells; host or cells: MNK1-KO mouse embryonic fibroblasts
T1 sequence (Q8CDB0 whole entry): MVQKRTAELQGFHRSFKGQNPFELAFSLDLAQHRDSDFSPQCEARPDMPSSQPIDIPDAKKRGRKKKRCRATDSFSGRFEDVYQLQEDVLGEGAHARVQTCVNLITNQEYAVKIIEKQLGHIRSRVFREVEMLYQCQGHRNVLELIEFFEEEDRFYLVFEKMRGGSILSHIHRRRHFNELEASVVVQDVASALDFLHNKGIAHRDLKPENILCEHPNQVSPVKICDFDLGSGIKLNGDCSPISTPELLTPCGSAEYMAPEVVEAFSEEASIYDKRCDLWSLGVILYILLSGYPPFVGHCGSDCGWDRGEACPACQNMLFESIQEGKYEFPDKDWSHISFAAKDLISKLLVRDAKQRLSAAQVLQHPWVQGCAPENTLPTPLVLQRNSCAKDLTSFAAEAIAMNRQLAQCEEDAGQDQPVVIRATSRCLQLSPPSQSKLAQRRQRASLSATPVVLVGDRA

[4] = target: T2, MNK1 (Mus musculus, UniProt O08605); assay: P-eIF4E in MNK2-KO mouse embryonic fibroblasts (reports on MNK1); type: cell-based; conditions: 1 h
T2 construct: endogenous in cells; host or cells: MNK2-KO mouse embryonic fibroblasts
T2 sequence (O08605 whole entry): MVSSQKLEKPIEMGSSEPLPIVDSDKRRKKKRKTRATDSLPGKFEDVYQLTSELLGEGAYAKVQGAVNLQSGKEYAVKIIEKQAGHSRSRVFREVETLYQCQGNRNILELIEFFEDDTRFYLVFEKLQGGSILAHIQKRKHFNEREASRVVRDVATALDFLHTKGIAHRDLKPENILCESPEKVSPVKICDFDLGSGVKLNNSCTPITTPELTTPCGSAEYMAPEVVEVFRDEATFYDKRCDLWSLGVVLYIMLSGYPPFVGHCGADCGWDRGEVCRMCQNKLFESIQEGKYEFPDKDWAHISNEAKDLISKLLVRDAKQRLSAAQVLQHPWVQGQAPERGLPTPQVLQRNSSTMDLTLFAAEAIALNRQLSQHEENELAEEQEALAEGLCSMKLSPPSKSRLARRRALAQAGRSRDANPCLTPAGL
Description: FIG. 16 provides the results of studies conducted on mouse embryonic fibroblasts (MEFs): MNK1-KO (A) or MNK2-KO (B). […] The graphs show combined data from three experiments. *, p<0.05 vs. untreated control; ****, p<0.0001, vs. untreated control.
In some embodiments, the MNK inhibitor may preferably show selectivity and/or increased inhibitory potency to MNK2. A simple test for assessing the selectivity of an MNK inhibitor can be conducted by treating suitable cells from animals in which either MNK1 or MNK2 has been knocked out (eg mouse embryonic fibroblasts (MEFs) from MNK1-KO and MNK2-KO mice) with the MNK inhibitor. Since, in MNK1-KO MEFs, eIF4E phosphorylation depends on MNK2, and vice versa, monitoring the effect of different concentrations of an MNK inhibitor of interest on P-eIF4E levels in MNK-KO MEFs reports on the ability of that compound to inhibit MNK2 (MNK1-KO MEFs) or MNK1 (MNK2-KO MEFs).
as §1

[5] = test system: 3T3-L1 cells; assay: Induction of adipogenic gene mRNAs in differentiating 3T3-L1 cells (RT-qPCR); type: cell-based
Method: Total RNA was isolated from tissues (frozen at the time of sampling) using Trizol reagent (Sigma-Aldrich) according to the manufacturer's instructions. RNA concentrations were determined by absorbance at 260 nm, while quality and integrity were evaluated via 260/230 and 260/280 ratios using a NanoDrop spectrophotometer (Thermo Fisher Scientific). RT-real time PCR amplification was carried out using the ImProm-II Reverse Transcription System (A3800; Promega, Madison, Wis., United States of America) with random primers following the manufacturer's protocol. Subsequently, real-time quantitative (q) PCR was performed using primer sequences described in Supplemental Table S1 of Moore CEJ et al., 2016, the content of which is hereby incorporated by reference in its entirety). The comparative CT method was used to measure the amplification of target mRNA levels compared with […] (B2M) mRNA. In FIG. 1A, the relative amount of each transcript was determined using the equation 2^−dCt, where dCt=(Ct target gene-Ct ref gene), and Ct=cycle threshold.
(§2) For induction of 3T3-L1 (fibroblast) cell differentiation, pre-adipocytes were grown to 2 days post-confluence in DMEM supplemented with 10% FBS (day 0) and the medium was changed to DMEM supplemented with 10% FBS, insulin (167 nM), dexamethasone (0.5 μM), isobutylmethylxanthine (IBMX) (0.5 mM) and rosiglitazone (2 μM). After 48 h, the medium was replaced with medium containing DMEM supplemented with 10% (v/v) FBS and 167 nM insulin. On day 4, after inducing differentiation, and thereafter, the cells were cultured in DMEM with 10% FBS. The maintenance medium was changed every 48 h until the cells were utilised for experimentation (9 days from the initiation of differentiation).
In order to study the role of MNK2 in adipocyte differentiation, 3T3-L1 cells were used in a similar manner to that described in Example 1. […]

[6] = test system: other protein kinases; conditions: cited from earlier work
[7] = test system: 3T3-L1 cells; assay: Lipid accumulation in differentiating 3T3-L1 cells (Oil Red O / triglyceride); type: cell-based; conditions: 10 μM, 3T3-L1 cells
Method: as §2
Assessment of intracellular triglyceride levels was performed using Oil Red O staining as described by others (Smith et al., 1988). Briefly, on day 9 of differentiation of the 3T3-L1 cells were fixed in 10% formalin for 1 hour. […] For quantification, cells were washed extensively with water to remove unbound dye, and 1 ml isopropanol was added to the stained 6-well culture plate. After 5 min, the absorbance of the oil red extract at 510 nm was measured, with an increased absorbance indicative of an increased lipid level within the cells.
The amount of tissue-released triglyceride (TAG) was measured using a Triglyceride Quantification Kit (Abcam, ab65336).

COc1cc(F)ccc1Nc1ncnc2sc(C(=O)N3CCOCC3)c(C)c12 [MNK-5K]
Comments (ability to inhibit MNKs, eIF4E phosphorylation) [1]: Almost inactive

Cc1c(C(=O)NCCc2c[nH]cn2)sc2ncnc(Nc3ccc(F)cc3OC(C)C)c12 [JX-MNK-7S]
Comments (ability to inhibit MNKs, eIF4E phosphorylation) [1]: Good activity

Cc1c(C(=O)N2CCOCC2)sc2ncnc(Nc3ccc(F)cc3OC(C)C)c12 [MNK-7K]
Comments (ability to inhibit MNKs, eIF4E phosphorylation) [1]: Almost inactive

COc1cc(F)ccc1Nc1ncnc2sc(C(=O)N3CCN(C)CC3)c(C)c12 [MNK-5V]
Comments (ability to inhibit MNKs, eIF4E phosphorylation) [1]: Almost inactive

COC(=O)[C@@]1(C)C[C@@]2(C)O[C@]1(C)n1c3ccccc3c3c4c(c5c6ccccc6n2c5c31)C(=O)NC4 [CGP052088]
IC50 [2]: 70 nM

COc1cc(F)ccc1Nc1ncnc2sc(C(=O)NCCCN3CCOCC3)c(C)c12 [MNK-5O]
Comments (ability to inhibit MNKs, eIF4E phosphorylation) [1]: Good activity

Cc1c(C(=O)N2CCCCC2)sc2ncnc(Nc3ccc(F)cc3OC(C)C)c12 [MNK-7J]
Comments (ability to inhibit MNKs, eIF4E phosphorylation) [1]: inactive

COc1cc(F)ccc1Nc1ncnc2sc(C(=O)NCCc3c[nH]cn3)c(C)c12 [MNK-5S]
Comments (ability to inhibit MNKs, eIF4E phosphorylation) [1]: Moderate activity

Cc1c(C(=O)NCCCN2CCCC2)sc2ncnc(Nc3ccc(F)cc3OC(C)C)c12 [MNK-I2]
inhibition of P-eIF4E levels in MNK1-KO MEFs ([3]; 1 h, lowest concentration 0.1 μM): inhibited P-eIF4E levels almost completely at all concentrations tested
selectivity for MNK2 over MNK1 ([3]; comparison of MNK1-KO and MNK2-KO MEFs): selectivity of the MNK-I2 inhibitor for MNK2 over MNK1
inhibition of P-eIF4E in MNK2-KO MEFs [4]: weaker inhibitory effect than MNK-I1
induction of adipogenic genes (Cebpα, Cebpβ, Cebpδ, Pparγ, Fas, Acc, Cd36 mRNA) ([5]; 3T3-L1 cells with differentiation cocktail, RT-qPCR): impaired the induction of all of the genes in the adipogenic programme
Comments (ability to inhibit MNKs, eIF4E phosphorylation) [1]: Good activity, especially against MNK2
inhibition of P-eIF4E / MNK activity ([1]; immunoblot): inhibits P-eIF4E strongly

Cc1c(C(=O)NCCCN2CCOCC2)sc2ncnc(Nc3ccc(F)cc3OC(C)C)c12 [MNK-7O]
Comments (ability to inhibit MNKs, eIF4E phosphorylation) [1]: Good activity

Cc1c(C(=O)NCC(C)(C)CN(C)C)sc2ncnc(Nc3ccc(F)cc3OC(C)C)c12 [MNK-7P]
Comments (ability to inhibit MNKs, eIF4E phosphorylation) [1]: Good activity

COc1cc(F)ccc1Nc1ncnc2sc(C(=O)NCCc3ccncc3)c(C)c12 [MNK-5U]
Comments (ability to inhibit MNKs, eIF4E phosphorylation) [1]: Moderate activity

COc1cc(F)ccc1Nc1ncnc2sc(C(=O)N3CCCCC3)c(C)c12 [MNK-5J]
Comments (ability to inhibit MNKs, eIF4E phosphorylation) [1]: inactive

COc1cc(F)ccc1Nc1ncnc2sc(C(=O)NC3CCCCC3)c(C)c12 [MNK-5W]
Comments (ability to inhibit MNKs, eIF4E phosphorylation) [1]: Moderate activity

Cc1c(C(=O)NCCCO)sc2ncnc(Nc3ccc(F)cc3OC(C)C)c12 [MNK-7I]
Comments (ability to inhibit MNKs, eIF4E phosphorylation) [1]: Partially active

Cc1c(C(=O)N2CCCC2)sc2ncnc(Nc3ccc(F)cc3OC(C)C)c12 [MNK-7X]
Comments (ability to inhibit MNKs, eIF4E phosphorylation) [1]: Partial actvitiy

Cc1c(C(=O)NC2CCCCC2)sc2ncnc(Nc3ccc(F)cc3OC(C)C)c12 [MNK-7W]
Comments (ability to inhibit MNKs, eIF4E phosphorylation) [1]: Partial activity

Cc1c(C(=O)N2CCN(C)CC2)sc2ncnc(Nc3ccc(F)cc3OC(C)C)c12 [MNK-7V]
Comments (ability to inhibit MNKs, eIF4E phosphorylation) [1]: Partial activity

COc1cc(F)ccc1Nc1ncnc2sc(C(=O)NCC(C)(C)CN(C)C)c(C)c12 [MNK-5P]
Comments (ability to inhibit MNKs, eIF4E phosphorylation) [1]: Moderate activity

Cc1c(C(=O)OCCO)sc2ncnc(Nc3ccc(F)cc3OC(C)C)c12 [MNK-7F]
Comments (ability to inhibit MNKs, eIF4E phosphorylation) [1]: Weak activity

Cc1c(C(=O)OCCc2ccccc2)sc2ncnc(Nc3ccc(F)cc3OC(C)C)c12 [MNK-7T]
Comments (ability to inhibit MNKs, eIF4E phosphorylation) [1]: inactive

CC(=O)C1=C(O)C=C2Oc3c(C(N)=O)c(O)cc(O)c3[C@]2(C)C1=O [cercosporamide, (9aS)-8-Acetyl-9,9a-dihydro-1,3,7-trihydroxy-9a-methyl-9-oxo-4-dibenzofurancaboxamide]
inhibition of other protein kinases [6]: inhibit other protein kinases in addition to the MNKs
induction of adipogenic genes such as PPARγ (mRNA) ([5]; 10 μM, 3T3-L1 cells): impaired the induction of genes such as PPARγ
lipid accumulation [7]: reduced lipid accumulation

COc1cc(F)ccc1Nc1ncnc2sc(C(=O)NCCCN3CCCC3)c(C)c12 [MNK-5M]
Comments (ability to inhibit MNKs, eIF4E phosphorylation) [1]: Good activity

Cc1c(C(=O)NCCc2ccncc2)sc2ncnc(Nc3ccc(F)cc3OC(C)C)c12 [MNK-7U]
Comments (ability to inhibit MNKs, eIF4E phosphorylation) [1]: Good activity

Cc1c(C(=O)OCCCO)sc2ncnc(Nc3ccc(F)cc3OC(C)C)c12 [MNK-7L]
Comments (ability to inhibit MNKs, eIF4E phosphorylation) [1]: Partial activity

COc1cc(F)ccc1Nc1ncnc2sc(C(=O)N3CCCC3)c(C)c12 [MNK-5X]
Comments (ability to inhibit MNKs, eIF4E phosphorylation) [1]: Almost inactive
